IC50 and Ki data for six compounds are collected here from BindingDB's records for patent US20230322715 (University of California, 2023).

Holding throughout (assay): In Vitro Inhibition Assay Method
The target in assay [1] is Alpha-ketoglutarate-dependent dioxygenase FTO (Homo sapiens, UniProt Q9C0B1). As to the method: (§1) Inhibitors were added in concentrations ranging from 0.008-40 μM; all inhibitors were dissolved in DMSO and added to a final concentration of 0.2% DMSO. […] After incubation at room temperature for 2 hours, the plates were left at 4 C. overnight (16 hours) to allow DFHBI-1T to bind to A7-Broccoli RNA. […] Sigmoidal dose-response curves were fitted in GraphPad Prism 6.

Another assay deals with RNA demethylase ALKBH5 (Homo sapiens, UniProt Q6P6C2). As for the experimental part: as §1
Assay [2] addresses T1, YTH domain-containing family protein 2 (Homo sapiens, UniProt Q9Y5A9).
T1 sequence (Q9Y5A9 whole entry): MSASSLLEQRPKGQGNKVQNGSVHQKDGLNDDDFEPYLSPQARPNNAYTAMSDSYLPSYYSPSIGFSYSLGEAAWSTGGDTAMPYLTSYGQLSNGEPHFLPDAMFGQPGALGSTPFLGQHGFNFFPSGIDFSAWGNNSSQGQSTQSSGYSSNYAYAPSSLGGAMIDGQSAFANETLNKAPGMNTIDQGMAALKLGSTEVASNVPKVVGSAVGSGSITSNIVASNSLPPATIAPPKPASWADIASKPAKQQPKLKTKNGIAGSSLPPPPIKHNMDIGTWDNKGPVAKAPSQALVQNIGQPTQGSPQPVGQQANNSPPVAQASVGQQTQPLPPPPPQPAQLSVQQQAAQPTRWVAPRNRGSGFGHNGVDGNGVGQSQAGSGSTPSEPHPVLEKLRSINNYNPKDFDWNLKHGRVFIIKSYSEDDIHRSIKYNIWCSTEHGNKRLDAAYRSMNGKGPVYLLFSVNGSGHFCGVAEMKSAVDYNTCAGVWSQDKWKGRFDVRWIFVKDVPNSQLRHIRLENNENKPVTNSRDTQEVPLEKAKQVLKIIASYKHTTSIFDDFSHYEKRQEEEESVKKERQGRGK
As for the experimental part:
as §1

The target in assay [3] is T2, YTH domain-containing family protein 1 (Homo sapiens, UniProt Q9BYJ9).
T2 sequence (Q9BYJ9 whole entry): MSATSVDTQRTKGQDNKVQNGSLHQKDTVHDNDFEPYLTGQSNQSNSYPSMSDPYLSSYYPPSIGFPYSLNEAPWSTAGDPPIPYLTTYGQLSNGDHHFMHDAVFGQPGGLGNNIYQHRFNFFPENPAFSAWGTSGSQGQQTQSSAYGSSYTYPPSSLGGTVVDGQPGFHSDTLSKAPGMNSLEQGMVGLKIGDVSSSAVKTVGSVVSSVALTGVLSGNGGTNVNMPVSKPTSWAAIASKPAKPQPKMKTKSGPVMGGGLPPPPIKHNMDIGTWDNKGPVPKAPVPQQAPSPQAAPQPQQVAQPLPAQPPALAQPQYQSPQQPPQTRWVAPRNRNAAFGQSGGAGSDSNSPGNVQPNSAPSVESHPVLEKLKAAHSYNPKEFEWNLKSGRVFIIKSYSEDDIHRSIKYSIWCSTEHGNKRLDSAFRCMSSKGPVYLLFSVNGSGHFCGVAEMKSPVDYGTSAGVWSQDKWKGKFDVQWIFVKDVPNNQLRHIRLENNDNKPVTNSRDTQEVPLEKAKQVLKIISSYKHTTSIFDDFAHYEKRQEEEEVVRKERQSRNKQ
As to the method: as §1

Chain of Alpha-ketoglutarate-dependent dioxygenase FTO (Q9C0B1 whole entry): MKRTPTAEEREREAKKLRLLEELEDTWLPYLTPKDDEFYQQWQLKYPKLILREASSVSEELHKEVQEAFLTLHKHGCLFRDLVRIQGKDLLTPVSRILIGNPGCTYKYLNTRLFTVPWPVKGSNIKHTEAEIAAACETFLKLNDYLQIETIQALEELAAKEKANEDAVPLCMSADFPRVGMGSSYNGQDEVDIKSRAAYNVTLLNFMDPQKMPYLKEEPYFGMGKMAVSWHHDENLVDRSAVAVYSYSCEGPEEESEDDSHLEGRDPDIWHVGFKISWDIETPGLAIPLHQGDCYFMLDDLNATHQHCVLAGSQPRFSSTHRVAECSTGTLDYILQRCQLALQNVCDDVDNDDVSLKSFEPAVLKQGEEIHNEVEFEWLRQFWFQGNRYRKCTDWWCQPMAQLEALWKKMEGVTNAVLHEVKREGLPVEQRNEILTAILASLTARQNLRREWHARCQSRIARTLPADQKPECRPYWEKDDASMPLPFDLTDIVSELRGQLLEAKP
Chain of RNA demethylase ALKBH5 (Q6P6C2 whole entry, the tested form may be a part): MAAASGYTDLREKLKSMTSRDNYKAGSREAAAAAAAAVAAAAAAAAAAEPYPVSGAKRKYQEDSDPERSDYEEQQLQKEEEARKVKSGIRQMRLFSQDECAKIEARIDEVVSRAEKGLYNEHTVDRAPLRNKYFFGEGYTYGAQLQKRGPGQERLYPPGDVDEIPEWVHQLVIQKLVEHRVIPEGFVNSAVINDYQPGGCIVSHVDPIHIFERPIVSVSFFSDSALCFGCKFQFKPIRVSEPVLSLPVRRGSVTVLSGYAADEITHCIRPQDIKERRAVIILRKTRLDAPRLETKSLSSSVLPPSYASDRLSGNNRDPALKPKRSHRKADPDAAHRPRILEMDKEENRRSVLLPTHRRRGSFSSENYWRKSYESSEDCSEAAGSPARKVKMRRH

In general, IC50 refers to the point on the concentration scale where inhibition reaches its midpoint. A low value points to inhibition by little substance. In the case of `O=S(=O)(Nc1ccc(Cl)c(Cl)c1)c1ccc(OC(F)(F)F)cc1` [US20230322715, Compound TR-ALKBH5-33], the IC50 in assay [1] is > 40000 nM; against RNA demethylase ALKBH5, 2600 nM.
Consider `O=C(C1CC1)N1CCN(S(=O)(=O)c2ccc(OC(F)(F)F)cc2)CC1` [US20230322715, Compound TR-ALKBH5-41], for which the IC50 in assay [1] was > 40000 nM; against RNA demethylase ALKBH5 it was 450 nM.
In general, Ki refers to a dissociation constant, usually derived from enzyme kinetics or from competition with a known ligand. With `CSc1ccccc1Nc1ccc(CNC2CC2)cn1` [US20230322715, Compound TR-YTH-11], the inhibition constant (Ki) in assay [2] worked out at 5.59 nM; in assay [3], 13.4 nM.
Consider `COc1cc(Nc2ccc(CNC3CC3)cn2)cc(OC)c1` [US20230322715, Compound TR-YTH-13], for which the Ki in assay [2] stood at 0.15 nM; in assay [3], 0.473 nM.
As to `Fc1ccc(Nc2ccc(CNC3CC3)cn2)c(F)n1` [US20230322715, Compound TR-YTH-14], the Ki amounted to 0.128 nM in assay [2] and 0.399 nM in assay [3].
Consider `Cc1ccc(Nc2ccc(CN(C)C)cn2)cc1C` [US20230322715, Compound TR-YTH-17], for which the Ki came to 0.333 nM in assay [2] and 0.605 nM in assay [3].
